Entries after “also recorded” stand apart in the source; their conditions may differ. Where two headings read alike, the source gives them in different places.
How the values were obtained:
asthmatic mice [1] = assay: Airway resistance (Raw) response to methacholine in murine model of asthma (forced oscillation); format: in vivo, Balb/cJ mice
Description: Balb/cJ mice aged 6 weeks (Jackson Animal Laboratory, Bar Harbor, Me.) were housed under specific pathogen-free conditions and fed a chicken ovalbumin-free diet. The Animal Research Ethics Boards of both the University of Houston and the Baylor College of Medicine approved all experiments reported here. […] Mice were sensitized with subcutaneous injection of 25 μg of ovalbumin adsorbed to aluminum hydroxide on protocol days 2, 9, and 16. Subsequently, mice were given 50 μL of saline solution containing 25 μg of ovalbumin intranasally, on a daily basis, from protocol days 23 through 27. A group of ovalbumin-sensitized saline-challenged mice serves as controls for systemic sensitization and respiratory challenges with ovalbumin. Prior to intranasal administrations, mice were sedated with halothane vapor.
To examine the effects of duration of β-adrenergic ligand therapy on the phenotype of the murine model of asthma, the experimental drugs were administered either acutely or chronically to different groups of asthmatic mice.
Asthmatic mice on acute therapy were given a single intravenous bolus infusion of either β-adrenergic drug or normal saline on protocol day 28, 15 minutes before airway responsiveness to methacholine was determined. […] […] […] These concentrations were chosen based on those producing therapeutic effects in mice in previously published studies. The non-asthmatic mice were fed normal chow.
On protocol day 28, mice were anesthetized, tracheotomized, and connected to a computer-controlled small animal ventilator (Flexivent, Scientific Respiratory Equipment, Inc., Montreal, Canada). Airway resistance (Raw) was measured using the forced oscillation technique. The cellular composition of bronchoalveolar lavage fluid (BALF) was also determined.
To induce airway constriction, a solution containing 150 μg/mL of acetyl-α-methylcholine chloride (methacholine) (Sigma Chemical, St. Louis, Mo.) was infused intravenously at constant rates using a syringe infusion pump (Raze Scientific Instruments, Stanford, Conn.). […] Each methacholine dose was administered for 3 to 5 minutes, during which data were sampled at 1-minute intervals and then averaged.
The complex input impedance of the respiratory system was computed and the value of the real part of respiratory system impedance at 19.75 Hz was taken to reflect the magnitude of airway resistance (Raw). To examine the degree of airway responsiveness of each animal, the values for Raw as a function of methacholine doses were plotted. The largest value for Raw achieved in response to methacholine stimulation was referred to as Rawpeak. For mice that achieved a plateau in the methacholine dose-Raw response curve, the ED50 was calculated by linear interpolation using the GraphPad Prism4 (GraphPad Software, Inc.). […] The Bonferroni test was used to examine the statistical differences between experimental groups. The effects of acute drug treatments on baseline respiratory system mechanics were assessed using a two-tailed paired t-test. A value of P<0.05 was considered significant.
For these experiments, salbutamol was used for chronic administration at 0.5 mg/kg/day with a minipump and for acute administration at 0.15 mg/kg by i.v. bolus 15 minutes prior to challenge. Alprenolol was used at a high dose of 7200 ppm in chow or at a low dose of 720 ppm in chow. Carvedilol was used at a high dose of 2400 ppm in chow or at a low dose of 720 ppm in chow.

β2-adrenergic receptor [2] = biological target: β2-adrenergic receptor (Mus musculus, UniProt P18762); format: binding, mice
Description: (§1) β2-adrenergic receptor numbers were measured in asthmatic mice as follows. […] Mice were sacrificed and lung membranes were isolated as follows. Frozen lung tissue was homogenized in an ice-cold buffer containing 0.32 M sucrose and 25 mM Tris (pH 7.4) using a polytron (Pro 200, Pro Scientific, Inc.). The homogenate was centrifuged at 1000×g for 10 min at 4° C. The resulting supernatant was centrifuged at 40,000×g for 20 min at 4° C. The pellet was suspended in an ice-cold 25 mM Tris-HCl buffer (pH 7.4) and centrifuged at 40,000×g for 20 min at 4° C. The final pellet was suspended in 200 μL of 25 mM Tris-HCl (pH 7.4); membrane protein concentration was determined by BCA protein assay kit. […] The incubation was done at 37° C. for 2 h and terminated by rapid vacuum filtration through glass fiber filters. The filters were washed three times with 250 μL of cold wash buffer (25 mM Tris-HCl, pH 7.4) and the radioactivity determined in a counter. […] Receptor densities are expressed as femtomoles of sites per milligram of protein. Bmax is determined by nonlinear regression of the saturation binding curves.

β2-adrenergic receptor [3] = format: binding, mice; settings: 2 days of administration
Description: as §1

asthmatic mice [4] = assay: Airway hyperresponsiveness, combination of carvedilol and salbutamol vs carvedilol monotherapy; format: in vivo, Balb/cJ mice; settings: 28 days treatment; highest dose of methacholine
Description: Mice (Balb/cJ) aged 6 weeks were housed under specific pathogen-free conditions and fed a chicken ovalbumin-free diet. Mice were systemically sensitized with ovalbumin adsorbed to aluminum hydroxide. Mice were treated as follows: CAR/SAL 28D=for 28 days mice (n=6-12) were administered carvedilol (2400 ppm in animal chow) and salbutamol (subcutaneous delivery of 0.5 mg/kg/day in an Alzet #2400 osmotic minipump); NTX S/C=mice (n=6-12) no drug treatment for 28 days; CTRL=mice (n=6-12) no drug treatment for 28 days, not subsequently challenged; CARHD 28D=for 28 days mice (n=6-12) were administered carvedilol only (2400 ppm in animal chow); CARHD 28D SAL AC=for 28 days mice (n=6-12) were administered carvedilol (2400 ppm in animal chow) and 15 minutes prior to measuring airway hyperresponsiveness, salbutamol was administered at a dose of […].
To measure airway hyperresponsiveness after 28 days, all mice except the CTRL (control) mice were challenged with ovalbumin and then all mice were anesthetized, tracheotomized, and connected to a Flexivent small animal ventilator to measure airway resistance (Raw) by the forced oscillation technique. To induce airway constriction, a solution containing 150 μg/mL of methacholine was infused using a syringe infusion pump. The methacholine infusion was started at 0.008 mL/min and its rate was doubled stepwise up to a maximum […]. […]

asthmatic mice [5] = assay: BALF cell number and type (Example 11); format: in vivo; settings: vs nontreated asthmatic mice
Source text: The same mice as described in Example 1 underwent bronchoalveolar lavage (BAL) to determine the total number and type of immune system cells in the lung. BAL Fluid (BALF) was irrigated and collected from the lungs of mice as previously described (Evans K L, Bond R A, Corry […]. Frequency dependence of respiratory system mechanics during induced constriction in a murine model of asthma. J Appl Physiol. 2003 January;94(1):245-52). […] The number of neutrophils was increased in nontreated asthmatic mice compared to mice that served as controls for chronic beta-blocker treatments. In comparison to their notable effects on airway responsiveness, the β-AR ligands tested had very little effect on BALF cellularity. […] FIG. 12 has 3 panels of cell number and type of cells from the bronchoalveolar lavage fluid of asthmatic mice treated acutely or chronically with beta adrenergic ligands. Cells were identified as eosinophils (black bars), macrophages (hatched bars), neutrophils (grey bars), and lymphocytes (white bars) by standard morphologic criteria. At least 200 cells were counted per cytospin preparation, and the absolute number of each cell type was calculated based on the volume of fluid recovered from the lavage. […] Data are expressed as mean ±SEM and are representative of 6-25 animals per group. #P<0.05 compared to NTX, *P<0.05 compared to control (ANOVA).

[6] = tested on: tracheas from asthmatic mice; settings: chronic treatment of asthmatic mice, excised tracheas; cited from earlier work
patients with CHF = settings: cited from earlier work

β2-adrenergic receptor (Mus musculus, UniProt P18762), sequence (P18762 whole entry): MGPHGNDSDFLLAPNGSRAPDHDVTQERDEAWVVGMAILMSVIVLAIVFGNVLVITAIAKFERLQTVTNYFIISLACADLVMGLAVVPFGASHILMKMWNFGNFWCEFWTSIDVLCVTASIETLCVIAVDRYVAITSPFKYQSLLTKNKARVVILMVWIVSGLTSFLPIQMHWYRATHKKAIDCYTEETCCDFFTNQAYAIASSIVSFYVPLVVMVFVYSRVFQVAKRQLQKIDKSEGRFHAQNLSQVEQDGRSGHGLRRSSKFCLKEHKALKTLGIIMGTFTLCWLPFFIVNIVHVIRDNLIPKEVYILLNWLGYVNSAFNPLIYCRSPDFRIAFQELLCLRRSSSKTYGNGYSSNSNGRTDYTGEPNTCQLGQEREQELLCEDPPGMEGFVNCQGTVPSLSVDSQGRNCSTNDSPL

For COc1ccccc1OCCNCC(O)COc1cccc2[nH]c3ccccc3c12 (stereo not shown) [carvedilol], the “Decreased Raw” value (asthmatic mice [1]; 15 minutes of administration) was “no”, the “Decreased Raw” value (asthmatic mice [1]; 2 days of administration) was “no” and the “Decreased Raw” value (asthmatic mice [1]; 28 days of administration) was “yes”. The “airway responsiveness to methacholine provocation (Raw)” value (asthmatic mice [1]; asthmatic mice, acute: single intravenous bolus 15 minutes before methacholine) was “enhanced the airway responsiveness”, the “sensitivity of the responsiveness to methacholine” value (asthmatic mice [1]; asthmatic mice, chronic administration) was “shifts the sensitivity of the responsiveness to methacholine to lower concentrations” and the “airway responsiveness to methacholine provocation (Raw)” value (asthmatic mice [1]; asthmatic mice, chronic administration for 28 days) was “does reduce airway hyperresponsiveness; also recorded: reduced the responsiveness of asthmatic mice to methacholine provocation”. For the same compound, the “protection from airway hyperresponsiveness” value (asthmatic mice [1]; chronic administration, low and high doses in chow (FIGS. 8D-8G)) was “providing protection from airway hyperresponsiveness”, the Bmax (β2-adrenergic receptor [2]; 15 Minutes drug treatment, lung membranes of asthmatic mice, mean±SEM) was 86.3 ± 19.42 femtomoles of sites per milligram of protein and the βmax (β2-adrenergic receptor [2]; 28 Days drug treatment, lung membranes of asthmatic mice, mean±SEM) was 904.1 ± 43.46 femtomoles of sites per milligram of protein. The “Increased β2AR density” value (β2-adrenergic receptor [2]; 15 minutes of administration) was “no”, the “Increased β2AR density” value (β2-adrenergic receptor [2]; 28 days of administration) was “showed an increase in receptor density at 28 days” and the “Increased β2AR density” value (β2-adrenergic receptor [2]; 28 days of administration, listed as Carvedilol) was “yes”. For the same compound, the “increase of the level of β2-adrenergic receptors over the non-treated mice” value (β2-adrenergic receptor [2]; chronic administration) was “over 10 fold”, the “Increased β2AR density” value (β2-adrenergic receptor [3]) was “no” and the “bronchoconstriction / airway hyperresponsiveness (Raw)” value (asthmatic mice [4]) was “higher bronchoconstriction than these treatments but less than the non-drug treated sensitized and challenged (NTX S/C) mice”. For the same compound, the BALF cellularity (asthmatic mice [5]; acute treatment (15 minutes)) was “had no effects on BALF cellularity”, the BALF cellularity (asthmatic mice [5]; chronic treatment (28 days)) was “had no effects on BALF cellularity” and the “effectiveness on tracheal contraction in response to methacholine (rank)” value [6] was “followed by carvedilol”. The “clinical outcome in congestive heart failure” value (patients with CHF) was “significant mortality reduction”.

From patent publication US7528175B2, “Method of treating airway diseases with beta-adrenergic inverse agonists” (Inverseon, Inc., priority 2005, dated 2009)
